From publication PMC6005030, “The c-Abl inhibitor, Radotinib HCl, is neuroprotective in a preclinical Parkinson’s disease mouse model” (Human Molecular Genetics, 2018)
Counter-ions that a name gives are not always drawn.

How the values were obtained:
[1] = system: primary cortical neurons; test: Oxygen consumption rate (Seahorse XF24) in α-synuclein PFF-treated primary cortical neurons; format: cell-based, mouse; details: 1 μM, 14 days
Method: OCR was determined using the Seahorse XF24 Extracellular Flux Analyzer and the XF Cell Mito Stress Test Kit according to the manufacturer’s instruction (Agilent Technologies, Santa Clara, CA) ([42]). Briefly, primary mouse cortical neurons were plated in a XF24 cell culture microplate coated with poly-D-lysine. Cells were washed once with XF Assay Media, pre-incubated in a non-CO2 incubator at 37°C for 30 min in XF Assay Media. For the assay, cells were treated sequentially with 1 μM Oligomycin, 2 μM carbonyl cyanide-p-trifluoromethoxyphenylhydrazone (FCCP), and 1 μM Rotenone plus 1 μM Antimycin A. Oligomycin inhibits ATP synthase (complex V) to measure ATP production and proton leak. FCCP uncouples oxygen consumption from ATP production enables to measure maximal respiration. Rotenone and antimycin A inhibit complexes I and III and shut down mitochondrial respiration. Basal respiration was calculated using the mean of the OCR measurements before oligomycin injection minus the mean of the OCR measurements after rotenone and antimycin A injection, and maximal respiration was defined as the difference between the mean of the OCR measurements after FCCP injection and the mean of the OCR measurements after rotenone and antimycin A injection.

[2] = system: primary cortical neurons; test: α-synuclein PFF-induced LB/LN-like pathology in primary cortical neurons (pS129-α-synuclein immunostaining); format: cell-based, C57BL/6 mice; details: 50 nM, 250 nM and 1 μM, dose-dependent; 10 days
Method: (§1) C57BL/6 mice were obtained from the Charles River (Wilmington, MA). Primary cortical neurons were prepared from E15.5 pups and cultured in Neurobasal media supplemented with B-27, 0.5 mM L-glutamine, penicillin and streptomycin (Invitrogen, Grand Island, NY) on 24-well tissue culture plates coated with poly-D-lysine. Radotinib HCl was added to neurons for 30 min and α-synuclein PFF (final concentration 1 μg/ml) was further incubated as described (10 or 14 days) followed by Immunocytochemistry and biochemical or toxicity assays. Radotinib HCl was added to neurons three times a week before the assays.
(§2) Primary mouse cortical neurons were plated onto poly-D-lysine coated coverslips. 4% paraformaldehyde was used to fix the neurons, followed by blocking in a solution with 5% normal donkey serum (Jackson ImmunoResearch), 2% BSA (Sigma-Aldrich) and 0.1% TX (Sigma-Aldrich) for 30–60 min at room temperature. Floating brain tissue sections were blocked with 10% donkey serum (Jackson Immunoreserach) in PBS plus 0.2% TX for 30 min at room temperature.
Primary antibodies, anti-pS129-α-synuclein (ab168381; Abcam), anti-TH antibody (Novus Biologicals) and anti-MAP2 (MAB3418; Millipore) were incubated at 4°C overnight. […]

[3] = system: BCR-Abl; details: cited from earlier work
[4] = system: α-synuclein PFF mouse model of sporadic PD; test: α-synuclein PFF mouse model: neuroinflammation (Iba-1, GFAP) in SNpc; format: in vivo, C57BL/6 mice
Method: (§3) For stereotaxic injection of α-synuclein PFF, 2 months old mice were anesthetized with the mixture of xylazene and ketamine. An injection cannula (26.5 gauge) was applied stereotaxically into the striatum (anteroposterior, […]; dorsoventral, 2.6 mm) unilaterally into the right hemisphere. The infusion of 2 μl α-synuclein PFF (2.5 μg/μl in PBS) or PBS was performed at a rate of 0.4 μl per min. The head skin was closed by suturing and wound healing and recovery were monitored following surgery. For stereological analysis, animals were perfused and fixed intracardially with ice-cold PBS followed by 4% paraformaldehyde at 6 months after striatal α-synuclein PFF injections. The brain was removed and processed for immunohistochemistry or immunofluorescence. Behavioral test was performed at 6 months after the unilateral striatal α-synuclein PFF injections. Treatment of Radotinib HCl was accomplished after 1 month of striatal α-synuclein PFF injections, once a day.
The perfusion was performed with ice-cold PBS and fixed by 4% paraformaldehyde after deep anesthesia. Whole brains were collected, and fixed in the 4% paraformaldehyde, and incubated in cryoprotection solution (30% sucrose/PBS, pH 7.4). Brains were frozen in an optimal cutting temperature (OCT) solution and serial coronal sections (30 µm sections) were cut with a microtome. Free-floating sections were blocked with 5% goat or horse serum/PBS plus 0.2% Triton X-100 and incubated with anti-TH antibody (Novus Biologicals) or anti-pS129-α-synuclein followed by incubation with biotin-conjugated anti-rabbit antibody or anti-mouse antibody (Vector Labs). After washing three times, ABC reagents (Vector Labs) were added and sections were developed using SigmaFast 3, 3′-Diaminobenzidine (DAB) Peroxidase Substrate (Sigma-Aldrich). Sections were counterstained with Nissl (0.09% thionin). TH-positive and Nissl-positive dopaminergic neurons from the SNpc region were counted through optical fractionators, the unbiased method for cell counting. This method was carried out by using a computer-assisted image analysis system consisting of an Axiophot photomicroscope (Carl Zeiss Vision) equipped with a computer-controlled motorized stage (Ludl Electronics), a Hitachi HV C20 camera and Stereo Investigator software (MicroBright-Field). The total number of TH-stained neurons and Nissl counts was analyzed as previously described ([27],[43]). Fiber density in the striatum was analyzed by optical density (OD) measurement. […] The number of pS129-α-synuclein positive and Nissl positive in the SNpc region were measured with ImageJ software and field counting. […] The number and immunoreactivities of microglia and astrocyte in the SNpc region were measured with ImageJ software.

[5] = system: α-synuclein PFF mouse model of sporadic PD; test: α-synuclein PFF mouse model: behavioral tests (pole, grip strength, amphetamine rotation); format: in vivo, C57BL/6 mice
Method: as §3
Before the actual test, mice were trained for three consecutive days and each training session consists of three test trials. Briefly, the mice were placed on the top of the pole (3 in. from the top of the pole) and then total time to reach the bottom of the pole was recorded. For the test, mice went through three sessions and the total time was recorded. Results were recorded by turn down, climb down, and total time (in seconds).
Neuromuscular strength was measured by maximum holding force generated by the mice. Mice were allowed to grasp a metal grid with their forelimbs. The tail was gently pulled and the maximum holding force recorded by the force transducer (Biosed, USA) when the mice released their grasp on the grid.
The amphetamine treatment (5 mg/kg, Sigma-Aldrich) was intraperitoneally administered after 6 months of α-synuclein PFF injections with or without Radotinib HCl treatment. Mice were placed in individual white bowls with a diameter of 20 cm and allowed to habituate to their environment for 10 min before turns contralateral and ipsilateral to the lesion were recorded over 20 min. Full-body ipsilateral rotations (clockwise) per 1 min session were recorded for each mouse from the video recordings.

[6] = system: α-synuclein PFF mouse model of sporadic PD; test: α-synuclein PFF mouse model: dopaminergic neurodegeneration and striatal TH fiber density; format: in vivo, C57BL/6 mice; details: for SNpc TH- and Nissl-positive dopaminergic neurons (stereologic counting): 180 days after PFF
Method: as §3
The perfusion was performed with ice-cold PBS and fixed by 4% paraformaldehyde after deep anesthesia. Whole brains were collected, and fixed in the 4% paraformaldehyde, and incubated in cryoprotection solution (30% sucrose/PBS, pH 7.4). Brains were frozen in an optimal cutting temperature (OCT) solution and serial coronal sections (30 µm sections) were cut with a microtome. […] TH-positive and Nissl-positive dopaminergic neurons from the SNpc region were counted through optical fractionators, the unbiased method for cell counting. […] The total number of TH-stained neurons and Nissl counts was analyzed as previously described ([27],[43]). Fiber density in the striatum was analyzed by optical density (OD) measurement. […] The number of pS129-α-synuclein positive and Nissl positive in the SNpc region were measured with ImageJ software and field counting. […] The number and immunoreactivities of microglia and astrocyte in the SNpc region were measured with ImageJ software.

[7] = system: c-Abl; test: α-synuclein PFF mouse model: c-Abl activation and p38 MAPK phosphorylation in brain (Western blot); format: in vivo, C57BL/6 mice
Method: The mouse brain tissues were homogenized and prepared in lysis buffer (10 mM Tris–HCL, pH 7.4, 150 mM NaCl, 5 mM EDTA, 0.5% Nonidet P-40, 10 mM Na-β-glycerophosphate, phosphatase inhibitor cocktail (Sigma-Aldrich) and complete protease inhibitor mixture (Roche)), using a Diax 900 homogenizer (Sigma-Aldrich). After homogenization, samples were rotated at 4°C for 30 min for complete lysis, the homogenate was centrifuged at 22 000 × g for 30 min and the supernatants were collected.
(§4) Protein concentrations were determined using the BCA assay (Pierce, Rockford, IL, USA). 2X Laemmli buffer (Bio-Rad) was utilized to dilute the lysates. […] Protein bands were detected using chemiluminescence detection system onto X-ray film. […]
(§5) For stereotaxic injection of α-synuclein PFF, 2 months old mice were anesthetized with the mixture of xylazene and ketamine. […] The head skin was closed by suturing and wound healing and recovery were monitored following surgery. […]

[8] = system: primary cortical neurons; test: α-synuclein PFF-induced neuronal toxicity (TUNEL, Alamar Blue); format: cell-based, C57BL/6 mice; details: α-synuclein PFF 14 days; 50, 250, 1000 nM
Method: as §1
Cell viability was tested via two methods; In Situ Cell Death Detection Kit (Roche) for TUNEL assay and Alamar Blue assay (Thermo Fisher). […] Cell death was assessed through the TUNEL assay, according to the manufacturer’s protocol. For Alamar Blue assay, after adding Alamar Blue solution for 4 h, cell viability was determined by fluorescence at excitation wavelength 570 nm and emission wavelength 585 nm.

[9] = system: c-Abl; test: α-synuclein PFF-induced c-Abl activation in primary cortical neurons (Western blot); format: cell-based, C57BL/6 mice; details: 1 μM
Method: as §1
After washing two times with PBS, primary cortical neurons were harvested and then lysed with RIPA lysis buffer (Thermo Scientific) with phosphatase inhibitor cocktail (Sigma-Aldrich) and complete protease inhibitor mixture (Roche) for 30 min in ice. The lysate is then homogenized and centrifuged at 22 000 × g for 30 min.
as §4

[10] = system: α-synuclein PFF mouse model of sporadic PD; test: α-synuclein PFF mouse model: LB/LN-like pathology in vivo; set-up: species or system C57BL/6 mice; details: for Accumulation of pS129-α-synuclein in SNpc TH-positive neurons: oral once a day for 5 months, 180 days after PFF
Method: For Triton X-100 (TX, Sigma-Aldrich) soluble and insoluble fraction, cells were prepared with sequential lysis buffer. Samples were homogenized in the followed TX-soluble buffer (50 mM Tris (pH 8.0), 150 mM NaCl, 1% TX with phosphatase inhibitor cocktail and protease inhibitor cocktail) and then were centrifuged and collected the soluble supernatant. The insoluble pellet was resuspended in TX-insoluble buffer (50 mM Tris (pH 8.0), 150 mM NaCl, 1% TX, 2% SDS with phosphatase inhibitor cocktail and protease inhibitor cocktail) and then was sonicated and centrifuged at 22 000 × g for 30 min.
Protein concentrations were determined using the BCA assay (Pierce, Rockford, IL, USA). 2X Laemmli buffer (Bio-Rad) was utilized to dilute the lysates. […] Membrane was blocked with TTBS (150 mM NaCl, 10 mM Tris–HCl (pH 7.4), 0.05% Tween 20) containing 5% skim milk for 30–60 min and incubated at 4°C overnight with primary antibodies; mouse anti-α-synuclein (610787; BD Transduction Laboratories), rabbit anti-pY245 c-Abl (2861; Cell Signaling Technology), mouse anti-c-Abl (554148; BD Transduction Laboratories), rabbit monoclonal anti-pS129 α-synuclein (ab168381; Abcam), rabbit polyclonal anti-phospho-p38 MAPK (Thr180/Tyr182) (9211; Cell Signaling Technology), rabbit polyclonal anti-p38 MAPK (A11340; Abclonal Technology) followed by HRP-conjugated rabbit or mouse secondary antibodies (1: 5000, GE Healthcare) for 1 h at room temperature. Rabbit polyclonal anti-pY39-α-synuclein antibody was generated as described previously ([13]). Protein bands were detected using chemiluminescence detection system onto X-ray film. The membranes were reprobed with HRP-conjugated β-actin antibody (1: 20 000, Sigma-Aldrich).
as §2
Primary antibodies, anti-pS129-α-synuclein (ab168381; Abcam), anti-TH antibody (Novus Biologicals) and anti-MAP2 (MAB3418; Millipore) were incubated at 4°C overnight. The samples were washed with PBS three times, followed by 1 h of incubation with a mixture of FITC-conjugated (Jackson ImmunoReserach) and Cy3-conjugated (Jackson ImmunoReserach) secondary antibodies at room temperature. […]
as §5

[11] = mid (10 mg/kg) and high (30 mg/kg) doses oral
[12] = low (3), mid (10) and high (30 mg/kg) doses oral, 6 months after PFF

Cc1cn(-c2cc(NC(=O)c3ccc(C)c(Nc4nccc(-c5cnccn5)n4)c3)cc(C(F)(F)F)c2)cn1 [Radotinib HCl]
Basal respiration rate (BRR) [1]: markedly restored
Maximal respiration rate (MRR) [1]: markedly restored
LB/LN-like pathology induced by α-synuclein PFF (pS129-α-synuclein immunostaining) [2]: significantly decreased
IC50 [3]: 34 nM
Astrocyte activation (GFAP) in SNpc [4, 11]: significantly decreased
Iba-1 immunoreactivity and microglial density in SNpc [4, 11]: significantly reduced
Grip strength (neuromuscular strength reduced by α-synuclein PFF) [5, 12]: restored
Pole test latency induced by α-synuclein PFF [5, 12]: significantly restored
Amphetamine-induced full body ipsilateral rotations ([5]; mid (10 mg/kg) and high (30 mg/kg) doses oral, amphetamine 5 mg/kg I.P.): reduced
α-synuclein PFF-induced reduction in striatal TH-fiber density ([6]; low (3), mid (10) and high (30 mg/kg) doses oral): significantly rescued
SNpc TH- and Nissl-positive dopaminergic neurons (stereologic counting) [6, 11]: dramatic preservation
Increase in phosphorylation of c-Abl (Y245) and of p38 MAPK in α-synuclein PFF-injected mice ([7]; Supplementary Fig. S1): reversed
c-Abl activation, TX-insoluble α-synuclein aggregates, phosphorylation of Y39-α-synuclein and p38 MAPK, compared to Nilotinib-treated mice ([7]; α-synuclein PFF-injected mice): substantially decreased
α-synuclein PFF neuronal toxicity, Alamar blue assay [8]: significantly attenuated
α-synuclein PFF neuronal toxicity, TUNEL staining [8]: significantly attenuated
c-Abl activation induced by α-synuclein PFF (pY245-c-Abl) ([9]; α-synuclein PFF 1 μg/ml, primary cortical neurons): significantly decreased
Level of pY39-α-synuclein ([9]; α-synuclein PFF-treated primary cortical neurons): significantly decreased
TX-insoluble α-synuclein aggregates species, pS129-α-synuclein and pY39-α-synuclein levels in ventral midbrain ([10]; 3, 10, 30 mg/kg oral, dose-dependent): significantly reduced
Accumulation of pS129-α-synuclein in SNpc TH-positive neurons ([10]; mid (10 mg/kg) and high (30 mg/kg) doses): significantly decreased

Cc1cn(-c2cc(NC(=O)c3ccc(C)c(Nc4nccc(-c5cccnc5)n4)c3)cc(C(F)(F)F)c2)cn1 [Nilotinib]
Astrocyte activation (GFAP) in SNpc ([4]; high dose (30 mg/kg) oral): significantly decreased
Iba-1 immunoreactivity and microglial density in SNpc ([4]; high dose (30 mg/kg) oral): significantly reduced
Behavioral deficits in the α-synuclein PFF mouse model ([5]; high dose (30 mg/kg) oral): protected against the behavioral deficits
SNpc TH- and Nissl-positive dopaminergic neurons (stereologic counting) ([6]; high dose (30 mg/kg) oral): dramatic preservation
Reduction of TX-insoluble α-synuclein aggregate species, pS129- and pY39-α-synuclein compared to Radotinib HCl ([10]; high dose (30 mg/kg) oral): less effect
Accumulation of pS129-α-synuclein in SNpc TH-positive neurons ([10]; high dose (30 mg/kg)): significantly decreased
